Assay results taken from US6928770B2, “Alternating layer non-edible foraging matrix configurations for crawling arthropods” (priority 1999, dated 2005).
Several values for one entry are separate records, joined by “and”; a condition that tells them apart may be missing. Identical values can stand only once. Like-named read-outs stand apart in the source and are kept apart here.

How the values were obtained:
Type in all cases: in vivo
[1] = tested on: termites (Reticulitermes flavipes (Kollar)); test: Second experiment: test arena with treated foraging matrix disc at lower rates, termite survival in arenas; settings: for Time for cessation of termite activity: second experiment, activity in the monitors not detected
Source text: (§1) Data from two sets of experiments are included. In the first set of experiments, a total of 3,000 termites were used (2,970 workers and 30 soldiers) in all three replicates. In the second set of experiments, 3,000 termites were used in 4 replicates and 1,400 termites (1,386 workers and 14 soldiers) were used in two replicates for a total of six replicates. Fewer termites from 2 colonies were used because we could not collect enough to complete the replicates if a total of 3000 termites were used. The termites (Reticulitermes flavipes (Kollar)) were field collected from field colonies, separated from debris, and held in the laboratory at the USDA (United States Department of Agriculture) for no more than 14 days before introduction into a test arena for each experimental block. Termites from a different colony were used for each replicate.
(§2) The test arena consisted of Plexiglas sides (45 cm long, by 30 cm wide by 5.5 cm high) taped to a glass bottom (45 cm long, by 30 cm wide, by 0.6 cm high) with clear packing tape, manufactured by Crystal Clear, Manco Inc., Avon, Ohio. The Plexiglas sides were assembled by joining pieces with methylene chloride. Before the Plexiglas sides were taped to the glass bottom, the sides were baked in an oven at 40+/−2° C. for 24 hours to ensure that any volatiles caused by the methylene chloride were removed.
(§3) Builders sand from Unified Classification SP, O'Steen Bros., Inc., of Gainesville, Fla., was oven dried at 60+/−2° C. for at least 24 hours in metal pans. The sand was cooled and sieved using a sieve manufactured from Fisher Scientific Co., USA sieve no. 25, having openings of approximately 0.0278 inches each. The sieve was used to remove large pieces of debris. Two thousand five hundred grams (+/−1 g) of sand were poured into the arena and mixed thoroughly with 250 ml of double filtered, de-ionized water, which brought the moisture content of the sand to 10%. The sand was tamped and leveled.
(§4) Three monitoring stations were placed on top of the moistened builder's sand. The monitors were made of one roll of corrugated cardboard (100 cm by 6.5 cm) that was moistened and stacked into a white PVC coupler having an inner diameter of approximately 7 cm and being approximately 7.3 cm high, manufactured from Lasco of Brownsville, Tenn.
(§5) The non-edible foraging matrix treated with toxicant and used for the testing was a loamy, siliceous, thermic, arenic paleudults soil, which was a common sandy loam native soil from Central Florida. This native soil was initially oven dried at 150+/−2° C. for at least 24 hours, then cooled, then sifted to remove large pieces of organic debris. After treatment with a toxicant, the treated non-edible foraging matrix was formed into a disc for insertion into the monitors after termite activity occurred. The color contrast between the builder's sand, which was light honey color, and the native non-edible foraging matrix, which was a dark brown, was enough to see termites move portions of the treated soil particles from the discs into the tunnels.
The second application had the non-edible foraging matrix sample treated with 2.5 and 25.0 ppm of chlofenapyr, a version entitled Phantom from American Cyanamid of Princeton, N.J. A third application had the non-edible foraging matrix treated with 1.25 and 12.5 ppm of fipronil, a version entitled Termidor, from Rhone-Poulenc of Research Triangle, N.C. It is important to note that the rates used were approximately 10 and 100 times less than the rates use in the first experiment and are also 10 to 100 times less than the rates listed or proposed on the pesticide labels. Thus, the rates used in this experiment was not used for the intended purpose of the chemicals, which was to immediately kill the termites by creating a chemical barrier completely around the structure.
In both experimental set ups, controls were treated with filtered and de-ionized water. […]

[2] = tested on: termites (Reticulitermes flavipes (Kollar)); test: First experiment: test arena with three monitors, treated non-edible foraging matrix disc in one monitor
Source text: as §1, §2, §3, §4, §5
In both sets of experiments, three different non-edible foraging matrix treatment applications were prepared using novel selected amounts of termite treatment chemicals. The difference between the first experiment and the second experiment was the rates used. […] The second application had the non-edible foraging matrix sample treated with 250 ppm of chlorfenapyr, a version entitled Phantom from American Cyanamid of Princeton, N.J. A third application had the non-edible foraging matrix treated with 125 ppm of fipronil, a version entitled Termidor, from Rhone-Poulenc of Research Triangle, N.C.
In both experimental set ups, controls were treated with filtered and de-ionized water. The treated non-edible foraging matrix was air dried for 7 days and stored in sealed plastic bags until ready for use. […]

[3] = tested on: subterranean termites; settings: embodiment 2
Method: In the first experiment for embodiment two, oven dried Alachua fine soil was treated with approximately 125.0 ppm chlorfenapyr as the non-edible foraging matrix 550. The mixture 550 was poured into the opening 542 and wet to a moisture level of 10%. The amount of mixture 550 added to opening 542 was recorded for each replicate. Circular plastic containers having a diameter of approximately 11.5 cm by approximately 10 cm thick were filled with approximately 514 g of builder's sand and wet to a moisture level of approximately 10%. Embodiment 2 was inserted into the builder's sand in the plastic cup, 500 subterranean termites were added and the termites were allowed to tunnel for 3 weeks. After 3 weeks, the plastic container setup was disassembled. The number of live termites in the experimental unit was recorded. The amount of mixture 550 displaced from embodiment 2 was measured and recorded. Data were analyzed with a comparison test, between an untreated control sample and four replications(experimental units) of chlorfenatyr(slow acting toxicant).
Alive refers to number of termites alive after three(3) weeks exposure. %Mortality refers to percentage of termites that died after three(3) weeks exposure. Soil Moved(g) refers to total amount soil removed by the termites per each replication(per experimental unit). […] An average of 99.95% of the termites in treated units died, compared with 8.8% mortality in the control unit. […] Total untreated mixture 550 moved from embodiment 2 to the surrounding area was approximately 3.93 g, compared with an average of approximately 1.49 g of mixture 550 treated with approximately 125.0 ppm chlorfenapyr.
(§6) In the second experiment, mixture 550 was tested at a concentration of approximately 12.5 ppm chlorfenapyr. Experimental procedure was identical to what is listed above.

[4] = tested on: subterranean termites; settings: embodiment 3
Method: In the first experiment for embodiment 3, oven dried Alachua fine soil was treated with approximately 125.0 ppm chlorfenapyr as the non-edible foraging matrix 550. The mixture 550 was poured into the opening 542 and wet to a moisture level of 10%. The amount of mixture 550 added to opening 542 was recorded for each replicate. Plastic containers (approximately 11.5 cm diameter, approximately 10 cm high) were filled with approximately 514 g of builder's sand and wet to a moisture level of approximately 10%. Embodiment 3 was assembled and inserted into the builder's sand in the plastic cup, 500 subterranean termites were added and the termites were allowed to tunnel for 3 weeks. After 3 weeks, the plastic container setup was disassembled. The number of live termites in the experimental unit was recorded. The amount of mixture 550 displaced from embodiment 2 was measured and recorded.
Alive refers to number of termites alive after three(3) weeks exposure. %Mortality refers to percentage of termites that died after three(3) weeks exposure. Soil Moved(g) refers to total amount soil removed by the termites per each replication(per experimental unit).
as §6

[5] = approximately 12.5 ppm chlorfenapyr
[6] = approximately 125.0 ppm chlorfenapyr

SMILES: O=[N+]([O-])NC1=NCCN1Cc1ccc(Cl)nc1 [Imidacloprid, imidacloprid]
- percent survival ([1]; imidacloprid 0.5 and 5.0 ppm foraging matrix, 23% in untreated arenas): 17%
- Mean ± SE percent survival of termites ([1]; imidacloprid 0.5 ppm foraging matrix, after 8 weeks): 17.13 ± 11.61a %
- Mean ± SE percent survival of termites ([1]; imidacloprid 5.0 ppm foraging matrix, after 8 weeks): 17.57 ± 9.36a %
- Time for cessation of termite activity [1]: 8 weeks
- Termites in the monitors ([2]; 50 ppm imidacloprid, first experiment, summary of Table 1): 54 termites
- Mean ± SE number of termites in monitors ([2]; foraging matrix 50 ppm imidacloprid, week 1): 82.0 ± 2.7
- Mean ± SE number of termites in monitors ([2]; foraging matrix 50 ppm imidacloprid, week 2): 67.5 ± 0.1
- Mean ± SE number of termites in monitors ([2]; foraging matrix 50 ppm imidacloprid, week 3): 45.7 ± 14.9
- Mean ± SE number of termites in monitors ([2]; foraging matrix 50 ppm imidacloprid, week 4): 13.7 ± 2.9
- Mean ± SE number of termites in monitors ([2]; foraging matrix 50 ppm imidacloprid, week 5): 8.0 ± 3.7
- Mean ± SE number of termites in monitors ([2]; foraging matrix 50 ppm imidacloprid, week 6): 3.2 ± 3.0
- Mean ± SE number of termites in monitors ([2]; foraging matrix 50 ppm imidacloprid, week 7): 1.4 ± 1.4
- Mean ± SE number of termites in monitors ([2]; foraging matrix 50 ppm imidacloprid, week 8): 1.8 ± 0.9

SMILES: CCOCn1c(-c2ccc(Cl)cc2)c(C#N)c(Br)c1C(F)(F)F [Chlorfenapyr, chlorfenapyr]
- Amount of mixture 550 moved, treated compared with untreated [3, 5]: no significant difference
- Mortality compared with untreated replications [3, 5]: significantly higher
- Average percentage of termites in treated units that died ([3]; approximately 12.5 ppm chlorfenapyr, approximately 13.2% in untreated control units): approximately 85.3%
- Amount of mixture 550 moved, treated compared with untreated [3, 6]: significantly more of the untreated mixture 550 was moved
- Mortality compared with untreated replications [3, 6]: significantly higher
- Average percentage of termites in treated units that died ([3]; approximately 125.0 ppm chlorfenapyr, 3 weeks, 8.8% in control unit): 99.95%
- % Mortality ([3]; approximately 125.0 ppm chlorfenapyr, after 3 weeks exposure, per replication): 100.0% and 99.8%
- Amount of mixture 550 moved, 12.5 ppm compared with 125.0 ppm ([3]; chlorfenapyr 12.5 ppm vs 125.0 ppm): significantly more mixture 550 treated at 12.5 ppm was moved
- Mortality, approximately 125 ppm compared with approximately 12.5 ppm ([3]; chlorfenapyr 125 ppm vs 12.5 ppm): no significant differences
- Alive (number of termites alive) ([4]; 125.0 ppm chlorfenapyr, 500 termites, after 3 weeks exposure, per replication): 0
- % Mortality ([4]; 125.0 ppm chlorfenapyr, after 3 weeks exposure, per replication): 100.0%
- Amount of mixture 550 moved, treated compared with untreated [4, 5]: significantly less treated mixture 550 moved
- Mortality compared with untreated controls [4, 5]: no significant difference
- % Mortality ([4]; approximately 12.5 ppm chlorfenapyr, after 3 weeks exposure, per replication): 100%
- Average percentage of termites in treated units that died ([4]; approximately 12.5 ppm chlorfenapyr, approximately 18.5% in untreated control units): approximately 37.7%
- Amount of mixture 550 moved, treated compared with untreated [4, 6]: significantly more of the untreated mixture 550 was moved
- Average percentage of termites in treated units that died ([4]; approximately 125.0 ppm chlorfenapyr, approximately 9.6% in control unit): 100.0%
- Mean ± SE percent survival of termites ([1]; chlorfenapyr 2.5 ppm foraging matrix, after 8 weeks): 9.33 ± 5.05a^1%
- Mean ± SE percent survival of termites ([1]; chlorfenapyr 2.5 ppm foraging matrix, after 8 weeks, listed as chlorfenapyr): 9.33%
- Mean ± SE percent survival of termites ([1]; chlorfenapyr 25.0 ppm foraging matrix, after 8 weeks): 0.16 ± 0.16b %
- Mean ± SE percent survival of termites ([1]; chlorfenapyr 25.0 ppm foraging matrix, after 8 weeks, listed as chlorfenapyr): 0.16%
- Termite kill (in words) ([1]; chlorfenapyr at 25 ppm): killed virtually all the termites
- Time for cessation of termite activity [1]: 8 weeks
- Mean ± SE number of termites in monitors ([2]; foraging matrix 250 ppm chlorfenapyr, week 1): 100 ± 11.9
- Mean ± SE number of termites in monitors ([2]; foraging matrix 250 ppm chlorfenapyr, week 2): 60.7 ± 12.9
- Mean ± SE number of termites in monitors ([2]; foraging matrix 250 ppm chlorfenapyr, week 3): 21.3 ± 12.2
- Mean ± SE number of termites in monitors ([2]; foraging matrix 250 ppm chlorfenapyr, week 4): 10.9 ± 7.6
- Mean ± SE number of termites in monitors ([2]; foraging matrix 250 ppm chlorfenapyr, week 5): 3.5 ± 3.3
- Mean ± SE number of termites in monitors ([2]; foraging matrix 250 ppm chlorfenapyr, week 6): 0.8 ± 0.8
- Mean ± SE number of termites in monitors ([2]; foraging matrix 250 ppm chlorfenapyr, week 7): 0 ± 0
- Mean ± SE number of termites in monitors ([2]; foraging matrix 250 ppm chlorfenapyr, week 8): 0 ± 0

SMILES: N#Cc1nn(-c2c(Cl)cc(C(F)(F)F)cc2Cl)c(N)c1[S+]([O-])C(F)(F)F (stereo not drawn) [Fipronil, fipronil]
- Mean ± SE percent survival of termites ([1]; fipronil 1.25 ppm foraging matrix, after 5 weeks): 0.51 ± 0.30b %
- percent survival ([1]; fipronil 12.5 and 1.25 ppm foraging matrix, 39% in untreated arenas): 0.3-0.5%
- Mean ± SE percent survival of termites ([1]; fipronil 12.5 ppm foraging matrix, after 5 weeks): 0.30 ± 0.29b %
- Termite kill (in words) ([1]; fipronil at 1.25 and 12.5 ppm): killed virtually all the termites
- Time for cessation of termite activity [1]: 5 weeks
- Mean ± SE number of termites in monitors ([2]; foraging matrix 125 ppm fipronil, week 1): 73.8 ± 11.1
- Mean ± SE number of termites in monitors ([2]; foraging matrix 125 ppm fipronil, week 2): 44.3 ± 18.8
- Mean ± SE number of termites in monitors ([2]; foraging matrix 125 ppm fipronil, week 3): 14.6 ± 8.0
- Mean ± SE number of termites in monitors ([2]; foraging matrix 125 ppm fipronil, week 4): 6.4 ± 3.4
- Mean ± SE number of termites in monitors ([2]; foraging matrix 125 ppm fipronil, week 5): 2.6 ± 1.6
- Mean ± SE number of termites in monitors ([2]; foraging matrix 125 ppm fipronil, week 6): 0.3 ± 0.3
- Mean ± SE number of termites in monitors ([2]; foraging matrix 125 ppm fipronil, week 7): 0 ± 0
- Mean ± SE number of termites in monitors ([2]; foraging matrix 125 ppm fipronil, week 8): 0 ± 0
